Laboratory results as given in patent US20130225412A1, “SILICON NANOCARRIER FOR DELIVERY OF DRUG, PESTICIDES AND HERBICIDES , AND FOR WASTE WATER TREATMENT” (priority 2012, published 2013).

Experiment: Release from loaded diatomaceous earth measured by Nano Drop spectrophotometer
Format: physicochemical
Details: for start of release after loading / time of peak release: release pattern measured by NanoDrop
Experimental: According to embodiments herein, the diatom structure and drug loading capacity can vary for different kind of medicines. For example for anticancer Fluorouracil (5-FU or f5U) a master mix of 50 mg/ml was prepared. 0.8 ml of this master mix was added to 200 ml pure ethanol. 0.6 g diatomaceous earth (diatom cell wall) was added to this mixture and was left to be stirred for 3 hours with 200 rpm. Finally after filtration, diatom cell wall was washed once with methanol. 12 hours later at room temperature diatom cell wall were dried and loaded with Fluorouracil (5-FU or f5U).
Final concentration of 200 mg/ml of Gallic acid in Methanol/Diatomaceous Earth was prepared. To ensure that none of the Gallic acid was left on the outer surface of nano silicon, it washed by Methanol. After his, its release in water by interval of 2 hours was measured at the wavelength of 270 nm.
Evaluation of Benomyl fungicide release by nano Drop Spectrophotometer: Material and methods were identically same as Gallic Acid. After measuring all ODs, release calibration curve was drawn. […] With respect to FIG. 5, it is seen that the Benomyl releases after 12 hours of loading and gets to its peak release after 40 hours and the release decreases sharply. This is a kind of controlled release.
5-flouracil release pattern by nano Drop Spectrophotometer was evaluated. […] With respect to FIG. 6, it can be seen that the drug 5-Florouracil releases after 8 hours from the loading starts and 16 hours after gets peak release and then fall of gradually. This is a kind of controlled release.
Progesterone release pattern by nano Drop Spectrophotometer was evaluated.

Row | SMILES | start of release after loading [h] | time of peak release [h] | release in water (loaded in Diatomaceous Earth, washed by Methanol) | optical density (ODs) measures (release in water, interval of 2 hours, wavelength 270 nm, loaded in Diatomaceous Earth)
1 | CCCCNC(=O)n1c(NC(=O)OC)nc2ccccc21 [Benomyl] | 12 | 40 |  | 
2 | O=C(O)c1cc(O)c(O)c(O)c1 [Gallic acid] |  |  | none of the Gallic acid has been released in water | zero
3 | CC(=O)[C@H]1CC[C@H]2[C@@H]3CCC4=CC(=O)CC[C@]4(C)[C@H]3CC[C@]12C [Progesterone] | 4 | 28 |  | 
4 | O=c1[nH]cc(F)c(=O)[nH]1 [fluorouracil] | 8 | 16 |  | 
